Assays:
[1] = biological target: PKR R510Q (Homo sapiens, UniProt P30613, R510Q); assay: PKR mutant assay (AC50), PKR R510Q; assay type: biochemical; conditions: PKR R510Q mutant enzyme; read-out: PK R510Q AC50
In short: (§1)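 Human wild-type PKR or R510Q/K410E mutant (40-400 ng/well) in 50 mM Tris pH 7.5, 100 mM KCl, 5 mM MgCl2, 1 mM DTT, 0.03% BSA with PEP 0.1-0.5 mM, 180 μM NADH and LDH coupling. Compound (11-point 3-fold series from 100 μM final) preincubated 60 min at room temperature. Reaction was started with ADP (0.2-1.65 mM) and NADH depletion was followed at 340 nm to give AC50.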

[2] = biological target: T1, wild type PKR (Homo sapiens, UniProt P30613); assay: Cell based ATP assay in purified red blood cells; design: endogenous in cells; host or cells: purified red blood cells from blood of healthy volunteers; conditions: RBCs, overnight at 37° C., ATP levels by Cell-Titer-Glo
T1 sequence (P30613 whole entry): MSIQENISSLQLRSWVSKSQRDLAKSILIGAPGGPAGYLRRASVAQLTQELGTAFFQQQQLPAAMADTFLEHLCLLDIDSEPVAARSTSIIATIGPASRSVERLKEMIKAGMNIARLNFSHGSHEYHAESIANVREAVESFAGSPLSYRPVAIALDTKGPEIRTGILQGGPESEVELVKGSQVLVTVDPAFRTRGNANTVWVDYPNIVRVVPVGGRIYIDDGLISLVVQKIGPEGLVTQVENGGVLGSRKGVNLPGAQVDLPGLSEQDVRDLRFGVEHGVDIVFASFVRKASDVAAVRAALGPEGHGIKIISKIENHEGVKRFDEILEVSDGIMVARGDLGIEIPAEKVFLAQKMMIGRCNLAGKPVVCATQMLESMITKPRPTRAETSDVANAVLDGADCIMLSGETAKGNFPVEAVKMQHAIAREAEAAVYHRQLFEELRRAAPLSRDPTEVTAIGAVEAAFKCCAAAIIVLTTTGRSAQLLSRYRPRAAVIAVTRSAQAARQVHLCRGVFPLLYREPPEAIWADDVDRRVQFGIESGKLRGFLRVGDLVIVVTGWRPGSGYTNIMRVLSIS
In short: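 Leukocyte-depleted red cells from healthy volunteers were held in AGAM (PBS, glucose, adenine, mannitol) at 1×10^7 cells/mL. They were treated with 1:4 serial compound dilutions at 0.1% DMSO final and incubated overnight at 37 °C in humidity. ATP was then quantified by CellTiter-Glo luminescence.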

[3] = biological target: PKR K410E (Homo sapiens, UniProt P30613, K410E); assay: PKR mutant assay (AC50), PKR K410E; assay type: biochemical; conditions: PKR K410E mutant enzyme
Chain of PKR K410E (P30613 whole entry K410E): as the sequence (P30613 whole entry) above, with K410E counted along it
In short: as §1

[4] = biological target: T1, wild type PKR; assay: PKR mutant assay (AC50), wild type PKR; assay type: biochemical; conditions: wild type PKR enzyme; read-out: PKR WT AC50
In short: as §1

Chain of PKR R510Q (P30613 whole entry R510Q): as the sequence (P30613 whole entry) above, with R510Q counted along it

| Compound | AC50 [1] [nM] | AC50 [2] [nM] | AC50 [3] [nM] | AC50 [4] [nM] |
| --- | --- | --- | --- | --- |
| Cn1c2nc(Cc3cc[nH]n3)sc2c2cnn(Cc3ccn[nH]3)c(=O)c21 | < 300 | ≤ 1000 | < 300 | < 300 |
| Cn1c2nc(Cc3c[nH]nn3)sc2c2cnn(Cc3nccs3)c(=O)c21 | < 300 | ≤ 1000 | < 300 | 301 to 800 |
| Cn1c2nc(Cc3cc[nH]n3)sc2c2cnn(Cc3cocn3)c(=O)c21 | < 300 | ≤ 1000 | < 300 | < 300 |
| Cn1c2nc(Cc3c[nH]nn3)sc2c2cnn(Cc3cscn3)c(=O)c21 | < 300 | ≤ 1000 | < 300 | < 300 |
| Cn1c2nc(Cc3ccccn3)sc2c2cnn(Cc3c[nH]nn3)c(=O)c21 | < 300 | ≤ 1000 | < 300 | < 300 |
| Cn1c2nc(Cc3cc[nH]n3)sc2c2cnn(Cc3ncsc3N)c(=O)c21 | < 300 | ≤ 1000 | < 300 | < 300 |
| Cn1c2nc(Cc3ncsc3Br)sc2c2cnn(Cc3cc[nH]n3)c(=O)c21 | < 300 | ≤ 1000 | < 300 | < 300 |
| Cn1c2nc(Cc3c[nH]nn3)sc2c2cnn(Cc3cc[nH]n3)c(=O)c21 | < 300 | ≤ 1000 | < 300 | < 300 |
| Cn1c2nc(Cc3cc[nH]n3)sc2c2cnn(Cc3nncs3)c(=O)c21 | < 300 | ≤ 1000 | < 300 | < 300 |

Next, values leading:

| AC50 [1] [nM] | AC50 [2] [nM] | AC50 [3] [nM] | AC50 [4] [nM] | Compound |
| --- | --- | --- | --- | --- |
| < 300 | ≤ 1000 | < 300 | < 300 | Cn1c2nc(Cc3cc[nH]n3)sc2c2cnn(Cc3csc(CO)n3)c(=O)c21 |
| < 300 | ≤ 1000 | < 300 | < 300 | Cn1c2nc(Cc3cscn3)sc2c2cnn(Cc3cc[nH]n3)c(=O)c21 |
| < 300 | ≤ 1000 | < 300 | < 300 | Cn1ccc(Cn2ncc3c4sc(Cc5ccccn5)nc4n(C)c3c2=O)n1 |
| < 300 | ≤ 1000 | < 300 | < 300 | Cn1ccc(Cn2ncc3c4sc(Cc5csc(CO)n5)nc4n(C)c3c2=O)n1 |
| < 300 | ≤ 1000 | < 300 | < 300 | Cn1ccc(Cn2ncc3c4sc(Cc5c[nH]nn5)nc4n(C)c3c2=O)n1 |
